Measurements taken from patent US10342767B2, “Therapy for kinase-dependent malignancies” (CHILDREN'S HOSPITAL MEDICAL CENTER, priority 2011, dated 2019).
“Also recorded” adds a separate entry of the source. Structures can show the parent of a compound that is named as a salt.

Assays:
AU565 = AU565 dose response / cell survival (WST assay); assay type: cell-based; details: neuregulin 1-NRG1
Protocol: (§1) Cell-proliferation assay. […] The cells were incubated for 60 h.
(§2) Time at 0 hours represents the level of expression without TKI+/−GF. Note that the growth factors induce higher expression of c-FOS in all cell lines and DUSP1 in RT4 at 0 hours, while the addition of both TKI and growth factors induced both c-FOS and DUSP1. […] Note inhibition of c-FOS and DUSP1 is sufficient to kill AU565 cells, while their inhibition in RT4 and SKMEL28 cells restored the TKI sensitivity in the presence of growth factors.

RT4 = RT4 dose response / cell survival (WST assay); assay type: cell-based; details: EGF
Protocol: as §1, §2

Dusp1 = test: In vitro BCI-resistance screening of randomly mutagenized Dusp1 in BaF3-BA cells; assay type: cell-based, mouse
Protocol: To determine the relevant target of BCI more conclusively, we performed in vitro drug-resistant screening to select for BCI-resistant mutations in Dusp1. BaF3-BA cells transfected with an expression library of randomly mutagenized Dusp1 construct were used for the selection of mutations conferring resistance to different concentrations of BCI (FIG. 19D). […] 27 clones that emerged in 1.5 μM of BCI were randomly selected and further analyzed. Dose-response analysis confirmed their resistance to BCI (FIG. 19F). Sequencing of the Dusp1 gene in these clones identified four different substitution mutations (E19R, C24G, V83G, and E112R) and two deletion mutations at the N terminus (Δ2-8 and Δ2-28; FIG. 19G). Because most resistant clones carried two or more mutations, we generated clones with individual mutations for further analysis. […] Furthermore, an unbiased docking of BCI using a structural model of the Dusp1 rhodanese domain identified the putative site to which BCI binds, with a predicted free energy of ΔG=−7.63 (FIG. 18E).
Random mutagenesis and screening of Dusp1 mutants. A Gateway entry clone containing mouse Dusp1 complementary DNA was purchased from the Harvard PalsmiD repository (cat. #MmCD00312825). The Dusp1 coding region was transferred into the retroviral gateway vector pMSCV-Ires-GFP.GW59 by recombination cloning. […] Mutants isolated in the screen were engineered into the pMSCV-Dusp1-Ires-GFP vector, using the QuikChange II XL Site-Directed Mutagenesis Kit (Agilent). The sequence of each point mutation was confirmed by sequence analysis.

phospho-p38 = test: Pharmacodynamic phospho-p38 analysis in leukemic mice; assay type: in vivo, mouse; details: peripheral blood mononuclear cells, 6 h after BCI 10 mg/kg i.p.
Protocol: Pharmacodynamic analysis of Dusp1 and c-Fos targets. Phospho-p38 analysis. Three leukemic mice (8-12 weeks old), which had received transplants of BCR-ABL-expressing Kit+ cells, were injected with BCI (10 mg/kg) by intraperitoneal injection 4 weeks after transplantation. Phospho-p38 levels were quantified in peripheral blood MNCs using the Phosflow kit (BD Biosciences), according to the supplier's instructions. In brief, blood was collected from each mouse before and 6 hours after drug injection. Mononuclear cells were isolated by RBC depletion: RBCs were lysed twice using 4 ml Pharmlyse solution (BD Biosciences) per 100 μl of peripheral blood by mixing and incubated on ice for 5 min. After the second lysis step, cell pellets were washed with 1 ml 2% BSA in PBS followed by fixation using 100 μl of fixation and permeabilization solutions (BD Biosciences) for 20 min at 4° C. in the dark. The pellets were washed with 1 ml of 1×BD Perm/wash buffer. After fixation, the cells were blocked using 300 μl 2% BSA in Perm/wash buffer (BD Biosciences) at room temperature for 20 min. […] Data were acquired by FACS on Fortessa instrument, and the data were analyzed by FlowJo software. The mean fluorescence intensity (MFI) of the IgG control was deducted from the MFI of the experimental samples. […] Quantitative gene-expression analysis of target genes. […]

phospho-p38, p-JNK = test: Immunoblot of MAPK signaling in BaF3 and BaF3-BA cells; assay type: cell-based, mouse; details: with or without IL-3
Protocol: Western blotting. 4-6 million cells were collected, and whole-cell extracts were prepared using lysis buffer supplemented with a protease-inhibitor cocktail (Roche) and phosphatase-inhibitor cocktail 2 (Sigma-Aldrich), as described previously (Azam, M., Seeliger, M. A., Gray, N. S., Kuriyan, J. & Daley, G. Q. Activation of tyrosine kinases by mutation of the gatekeeper threonine. Nat. Struct. Mol. Biol. 15, 1109-1118 (2008)). The proteins were resolved on 10% SDS-PAGE gels and transferred to nitrocellulose membranes (Bio-Rad). Membranes were blocked in TBST with 5% nonfat milk and probed with appropriate antibodies as indicated. Densitometry was carried out using ImageJ software.

HCC827 cells = test: HCC827 cell survival (WST assay); details: DFC, BCI and erlotinib alone and in combination
K562 = test: Survival of K562 cells treated with imatinib with or without erythropoietin; assay type: cell-based, human; details: erythropoietin treatment
[1] = system: Fos, Dusp1, and Zfp36 expression; test: Real-time qPCR of Fos, Dusp1 and Zfp36 in BaF3-BA cells; assay type: cell-based, mouse
Protocol: Real-time qPCR analysis. Candidate genes picked by microarray analysis were validated by real time qPCR. Total RNA was isolated as described above. The RNA was first subjected to DNase treatment using DNA-free DNase kit (Ambion, Life technologies). 2 μg of total RNA was converted to cDNA with Superscript III first-strand synthesis kit (Life technologies). qPCR reactions were performed with the human gene-specific primers using the SYBR green method and using a Mastercycler RealPlex2 instrument (Eppendorf). All PCR reactions were performed in triplicate and the real-time data was normalized to β-actin expression.

[2] = system: CML CD34+ cells from patient CP4; test: Mouse model of CML with patient-derived CD34+ cells; assay type: in vivo, human; details: treatment for 3 weeks; imatinib 75 mg/kg, DFC and BCI 10 mg/kg twice daily i.p.
Protocol: To extend these findings to human cells, we tested the effect of c-FOS and DUSP1 inhibition on the survival of primary CML patient samples (Table 2).
Mouse models of CML with patient-derived cells. 3 million CD34+ cells from CML patient CP4 (described in Table 1) were transplanted into sublethally irradiated 8-week-old NSG mice. 2 weeks after transplantation, leukemic engraftment in bone marrow was determined by FACS using mouse and human specific antibodies against CD45. […] Drugs were diluted in PBS (vehicle) and administered by intraperitoneal injection twice daily. […]

[3] = system: CML patient cells (CP1, CP4); test: LTC-IC assay, CML patient samples; assay type: cell-based, human
Protocol: LTC-IC assay. The LTC-IC assay was performed according to the instruction manual of StemCell Technologies. […] After 24 h, the cells were washed in human long-term culture medium (HLTM; MyeloCult H5100 media containing 1 μM hydrocortisone) and were plated on irradiated MS-5 stromal cells. Cultures were maintained for 5 weeks with weekly half-medium changes. Cells were then harvested, counted, and transferred to methylcellulose-containing media (MethoCult Express, StemCell Technologies) for colony-forming assays. At the end of week 5, adherent and nonadherent cells were isolated and plated in methylcellulose (METHOCULT H4434 classic, stem cell technology) for CFU analysis in triplicate. Plates were incubated at 37° C., and colonies were scored 2 weeks after plating.

EGFR = details: NSCLC patients with activating EGFR mutations; cited from earlier work
SKMEL28 = SKMEL28 dose response / cell survival (WST assay); assay type: cell-based; details: HGF
Protocol: as §1, §2

[4] = mouse, in vivo; cited from earlier work
BaF3-BA cells = test: Cell proliferation/survival assay of BaF3 cells expressing BCR-ABL (WST-1); assay type: cell-based, mouse; details: inhibitor 500 nM

For `CS(=O)(=O)CCNCc1ccc(-c2ccc3ncnc(Nc4ccc(OCc5cccc(F)c5)c(Cl)c4)c3c2)o1` [lapatinib], the “response to lapatinib in the presence of growth factor” value (AU565) was “resistance” and the “response to lapatinib in the presence of growth factor” value (RT4) was “resistance”.

In the case of `O=C1/C(=C/c2ccccc2)C(NC2CCCCC2)c2ccccc21` (stereo not shown) [BCI, (E)-2-benzylidene-3-(cyclohexylamino)-2,3-dihydro-1H-inden-1-one], the “frequency of resistant clones” value (Dusp1; 1 μM BCI) is reported as 1,200 clones per million cells, the “frequency of resistant clones” value (Dusp1; 1.5 μM BCI) is reported as 27 clones per million cells and the “frequency of resistant clones” value (Dusp1; 2 μM of BCI) is reported as “did not yield any resistant clones”. The “increase in phospho-p38 levels” value (phospho-p38) was 4-8 fold, the phospho-JNK (phospho-p38, p-JNK; BaF3-BA cells) was “decreased” and the phospho-p38 levels (phospho-p38, p-JNK; BaF3 and BaF3-BA cells) was “enhanced; also recorded: increased”. The cell survival (HCC827 cells) was “sensitized the cells for erlotinib”.

With `Cc1ccc(NC(=O)c2ccc(CN3CCN(C)CC3)cc2)cc1Nc1nccc(-c2cccnc2)n1` [Imatinib, Imatinib mesylate] the “response to imatinib with erythropoietin” value (K562) was “conferred imatinib resistance”, the “expression of Fos, Dusp1 and Zfp36” value ([1]; imatinib alone) was “downregulated” and the “higher expression of Fos, Dusp1 and Zfp36 as compared to BaF3-BA plus imatinib” value ([1]; imatinib plus growth factor (IL-3)) was 4-5 fold. The “effect on human leukemic cells in bone marrow” value [2] was “ineffective”, the “LTC-IC activity as compared to vehicle” value ([3]; CP1 cells) was “increased” and the “LTC-IC activity as compared to vehicle” value ([3]; sample CP4) was “significant decrease”.

For `C#Cc1cccc(Nc2ncnc3cc(OCCOC)c(OCCOC)cc23)c1` [erlotinib], the response rate (EGFR) is given as “approximately 70%”.

For `CCCS(=O)(=O)Nc1ccc(F)c(C(=O)c2c[nH]c3ncc(Cl)cc23)c1F` [PLX4720], the “response to PLX4720 in the presence of growth factor” value (SKMEL28) was “resistance”.

For `COc1cc(/C=C/C(=O)C(=Cc2ccc(F)c(F)c2)C(=O)/C=C/c2ccc(O)c(OC)c2)ccc1O` [DFC, difluorinated curcumin], the “pharmacokinetics relative to curcumin” value [4] is listed as “superior pharmacokinetics”.

With `Oc1ccc(-c2nc(-c3ccncc3)c(-c3ccc(F)cc3)[nH]2)cc1` [SB202190] the “imatinib resistance conferred by inhibitor” value (BaF3-BA cells) was “conferred imatinib resistance”.
